By Kd is commonly meant the free concentration of one partner at which half of the binding sites on the other are occupied at equilibrium, for simple one-to-one binding. Read a low Kd as a tighter complex.

This experiment concerns the target human STING (WT) (Homo sapiens (Human), UniProt Q86WV6, H232R). In words: Surface plasmon resonance (SPR), STING (WT). It is filed as binding. The settings on record: biotinylated STING on streptavidin chip, 8° C. How it is done:
Biophysical experiments were performed with three different recombinant human STING protein variants designated according to allelic nomenclature of Yi et al., (2013). Codon optimized DNA sequences (for expression in Escherichia coli) encoding amino acid residues 149 to 345 (Swiss Prot Q86WV6) of human STING (WT), human STING (HAQ) and human STING (R232H) were synthesised by GenScript USA Inc (Piscataway, New Jersey, USA). These were ligated into a modified pET43a E. coli expression vector designed to encode N-terminal His tag followed by tobacco etch virus protease (TEV) cleavage site and a STING gene sequence. The resulting protein sequences for the three allelic variants are listed below:
Binding interactions of ligands with STING proteins were quantified using Surface Plasmon Resonance (SPR) with a minimally biotinylated STING protein immobilized on a streptavidin chip surface. […] Minimal biotinylation of purified huSTING proteins was performed using a previously described methodology (Chhabra 2012). Briefly, approximately 20 nmol of recombinant STING protein in 1×TBS buffer (25 mM Tris-HCl, pH 7.5, 150 mM NaCl, 5 mM DTT) was mixed with of EZ-Link™ Sulfo-NHS-LC-LC-Biotin (Thermofisher Scientific, cat #21338) at a molar ratio of 1 to 0.6 and incubated on ice for 2 hours. To remove any unreacted biotin reagent, protein/biotin mixture was passed through a Superdex 75 (10/300 GL) column equilibrated with 10 mM HEPES, pH7.4, 150 mM NaCl, 5 mM DTT, 5%[v/v] glycerol. A protein peak containing biotinylated huSTING protein was collected and stored in aliquots at −80° C.
Streptavidin was simultaneously immobilized in all four channels of a CM5 sensor chip docked in a Biacore instrument (either Biacore S200 or Biacore T200, GE Healthcare) as described previously (Zender 2013). Minimally biotinylated STING protein was captured onto a streptavidin coated chip surface at 8° C. in SPR binding buffer (50 mM HEPES, pH 7.4, 150 mM NaCl, 2%[v/v] DMSO) by gradually injecting in a single channel at a constant flow-rate of 2 μL/min until desired capture level was achieved, typically 3000 to 7000 RU (1 RU=1 pg/mm^2).
All binding experiments were performed at 8° C. in SPR binding buffer. To determine binding affinity, compound interaction with immobilized STING protein was analysed using dose-response experiments. Fresh 10 mM DMSO solutions of compound were diluted directly into SPR binding buffer typically to a concentration of 50 μM and then further diluted 2-fold or 3-fold aiming for either a 5- or 7-point concentration series range. Each ligand concentration series was injected at a constant flow rate of 60 μL/min with a 90 second association and a 180 second dissociation time. These were modified for compounds with longer residence times, so that curves could reach steady-state, or so that compound would be fully dissociated before the subsequent injection.
Scrubber 2 (www.biologic.com.au) was utilized for data processing, where signals were referenced against the blank surface (streptavidin+D-biotin) and further corrected for DMSO refractive index change and then “double-referenced” using a buffer-blank injection (Papalia 2006). Responses were fitted to either a 1:1 steady-state affinity model or a 1:1 kinetic model (that included a mass-transport component), available within Scrubber.

Sequence of human STING (WT) (Q86WV6 other isoform, or with tags, fused parts or gaps, stated change not applied): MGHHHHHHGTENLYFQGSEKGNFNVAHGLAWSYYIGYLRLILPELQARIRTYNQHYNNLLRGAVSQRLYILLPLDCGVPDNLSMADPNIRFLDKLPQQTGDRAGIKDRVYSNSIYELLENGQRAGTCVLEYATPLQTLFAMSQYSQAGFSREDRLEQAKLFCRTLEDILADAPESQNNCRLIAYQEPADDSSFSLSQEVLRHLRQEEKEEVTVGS

`COc1c(C(N)=O)ccc2c1nc(-c1ccccc1C(=O)O)n2CCn1c(-c2ccccc2C(=O)O)nc2c(OC)c(C(N)=O)ccc21` [Example 4, 2,2′-(Ethane-1,2-diylbis(5-carbamoyl-4-methoxy-1H-benzo[d]imidazole-1,2-diyl))dibenzoic acid] came in with a Kd of more than 10 µM. `COc1c(C(N)=O)ccc2c1nc(-c1ccc(Cl)cc1-c1noc(=O)[nH]1)n2CCn1c(-c2ccc(Cl)cc2-c2noc(=O)[nH]2)nc2c(OC)c(C(N)=O)ccc21` [Example 32, 1,1′-(Ethane-1,2-diyl)bis(2-(4-chloro-2-(5-oxo-4,5-dihydro-1,2,4-oxadiazol-3-yl)phenyl)-4-methoxy-1H-benzo[d]imidazole-5-carboxamide)] gave a Kd of more than 80 µM. With `COc1c(C(N)=O)ccc2c1nc(-c1ccc(Cl)cc1-c1nn[nH]n1)n2CCn1c(-c2ccc(Cl)cc2-c2nn[nH]n2)nc2c(OC)c(C(N)=O)ccc21` [Example 9, 1,1′-(Ethane-1,2-diyl)bis(2-(4-chloro-2-(2H-tetrazol-5-yl)phenyl)-4-methoxy-1H-benzo[d]imidazole-5-carboxamide)] the figure was 40 µM. The same measure for `COc1c(C(N)=O)ccc2c1nc(-c1cc(Cl)ccc1-c1nn[nH]n1)n2CCn1c(-c2cc(Cl)ccc2-c2nn[nH]n2)nc2c(OC)c(C(N)=O)ccc21` [Example 42, 1,1′-(Ethane-1,2-diyl)bis(2-(5-chloro-2-(2H-tetrazol-5-yl)phenyl)-4-methoxy-1H-benzo[d]imidazole-5-carboxamide)]: 139 µM; for `COc1c(C(N)=O)ccc2c1nc(-c1c(I)cccc1C(=O)O)n2CCn1c(-c2c(I)cccc2C(=O)O)nc2c(OC)c(C(N)=O)ccc21` (single isomer, unassigned) [Example 19.1, 2,2′-(Ethane-1,2-diylbis(5-carbamoyl-4-methoxy-1H-benzo[d]imidazole-1,2-diyl))bis(3-iodobenzoic acid)]: 0.034 µM. In turn, `NC(=O)c1ccc2c(c1)nc(-c1ccccc1C(=O)O)n2CCn1c(-c2ccccc2C(=O)O)nc2cc(C(N)=O)ccc21` [Example 2, 2,2′-(Ethane-1,2-diylbis(5-carbamoyl-1H-benzo[d]imidazole-1,2-diyl))dibenzoic acid] gave a dissociation constant Kd of 80 µM. The same measure for `COc1ccc(-c2nc3c(OC)c(C(N)=O)ccc3n2CCn2c(-c3ccc(OC)cc3C(=O)O)nc3c(OC)c(C(N)=O)ccc32)c(C(=O)O)c1` [Example 41, 6,6′-(Ethane-1,2-diylbis(5-carbamoyl-4-methoxy-1H-benzo[d]imidazole-1,2-diyl))bis(3-methoxybenzoic acid)]: 200 µM. The same measure for `COc1c(C(N)=O)ccc2c1nc(-c1ccc(Cl)cc1-c1n[nH]c(=O)o1)n2CCn1c(-c2ccc(Cl)cc2-c2n[nH]c(=O)o2)nc2c(OC)c(C(N)=O)ccc21` [Example 17, 1,1′-(Ethane-1,2-diyl)bis(2-(4-chloro-2-(5-oxo-4,5-dihydro-1,3,4-oxadiazol-2-yl)phenyl)-4-methoxy-1H-benzo[d]imidazole-5-carboxamide)]: 9.5 µM.

Take `COc1c(C(N)=O)ccc2c1nc(-c1ccc(C)cc1C(=O)O)n2CCn1c(-c2ccc(C)cc2C(=O)O)nc2c(OC)c(C(N)=O)ccc21` [Example 25, 6,6′-(Ethane-1,2-diylbis(5-carbamoyl-4-methoxy-1H-benzo[d]imidazole-1,2-diyl))bis(3-methylbenzoic acid)]: the Kd was determined as 250 µM. With `COc1c(C(N)=O)ccc2c1nc(-c1cnccc1C(=O)O)n2CCn1c(-c2cnccc2C(=O)O)nc2c(OC)c(C(N)=O)ccc21` [Example 30, 3,3′-(Ethane-1,2-diylbis(5-carbamoyl-4-methoxy-1H-benzo[d]imidazole-1,2-diyl))diisonicotinic acid] the figure was 126 µM. On to `COc1c(C(N)=O)ccc2c1nc(-c1cccc(Br)c1C(=O)O)n2CCn1c(-c2cccc(Br)c2C(=O)O)nc2c(OC)c(C(N)=O)ccc21` [Example 36, 6,6′-(Ethane-1,2-diylbis(5-carbamoyl-4-methoxy-1H-benzo[d]imidazole-1,2-diyl))bis(2-bromobenzoic acid)], for which the dissociation constant Kd turned out to be 58 µM. On to `COc1c(C(N)=O)ccc2c1nc(-c1ccc(Cl)cc1C(=O)O)n2C/C=C/Cn1c(-c2ccc(Cl)cc2C(=O)O)nc2c(OC)c(C(N)=O)ccc21` [Example 34, (E)-6,6′-(But-2-ene-1,4-diylbis(5-carbamoyl-4-methoxy-1H-benzo[d]imidazole-1,2-diyl))bis(3-chlorobenzoic acid)], for which binding was put at a Kd of 74 µM. The same measure for `COc1c(C(N)=O)ccc2c1nc(-c1c(F)cc(Cl)cc1-c1nn[nH]n1)n2CCn1c(-c2c(F)cc(Cl)cc2-c2nn[nH]n2)nc2c(OC)c(C(N)=O)ccc21` [Example 46, 1,1′-(Ethane-1,2-diyl)bis(2-(4-chloro-2-fluoro-6-(2H-tetrazol-5-yl)phenyl)-4-methoxy-1H-benzo[d]imidazole-5-carboxamide)]: 0.413 µM; for `COc1c(C(N)=O)ccc2c1nc(-c1c(F)cc(F)cc1C(=O)O)n2CCn1c(-c2c(F)cc(F)cc2C(=O)O)nc2c(OC)c(C(N)=O)ccc21` [Example 16, 2,2′-(Ethane-1,2-diylbis(5-carbamoyl-4-methoxy-1H-benzo[d]imidazole-1,2-diyl))bis(3,5-difluorobenzoic acid)]: 1.52 µM. With `COc1c(C(N)=O)cc(F)c2c1nc(-c1ccc(Cl)cc1C(=O)O)n2CCn1c(-c2ccc(Cl)cc2C(=O)O)nc2c(OC)c(C(N)=O)cc(F)c21` [Example 20, 6,6′-(Ethane-1,2-diylbis(5-carbamoyl-7-fluoro-4-methoxy-1H-benzo[d]imidazole-1,2-diyl))bis(3-chlorobenzoic acid)] the figure was 96 µM; with `CCc1ccc(-c2nc3c(OC)c(C(N)=O)ccc3n2CCn2c(-c3ccc(CC)cc3C(=O)O)nc3c(OC)c(C(N)=O)ccc32)c(C(=O)O)c1` [Example 33, 6,6′-(Ethane-1,2-diylbis(5-carbamoyl-4-methoxy-1H-benzo[d]imidazole-1,2-diyl))bis(3-ethylbenzoic acid)], 107 µM.

Turning to `COc1c(C(N)=O)ccc2c1nc(-c1c(Cl)cccc1C(=O)O)n2CCn1c(-c2c(Cl)cccc2C(=O)O)nc2c(OC)c(C(N)=O)ccc21` (racemic) [Example 22, 2,2′-(Ethane-1,2-diylbis(5-carbamoyl-4-methoxy-1H-benzo[d]imidazole-1,2-diyl))bis(3-chlorobenzoic acid)], the Kd is 0.077 µM. This Kd lies about 1400-fold lower than the previous one.

`COc1c(C(N)=O)ccc2c1nc(-c1ccc(Cl)cc1C(=O)O)n2CCCn1c(-c2ccc(Cl)cc2C(=O)O)nc2c(OC)c(C(N)=O)ccc21` [Example 35, 6,6′-(Propane-1,3-diylbis(5-carbamoyl-4-methoxy-1H-benzo[d]imidazole-1,2-diyl))bis(3-chlorobenzoic acid)] showed a Kd of more than 100 µM. Regarding `COc1c(C(N)=O)ccc2c1nc(-c1cc(F)c(F)cc1C(=O)O)n2CCn1c(-c2cc(F)c(F)cc2C(=O)O)nc2c(OC)c(C(N)=O)ccc21` [Example 15, 6,6′-(Ethane-1,2-diylbis(5-carbamoyl-4-methoxy-1H-benzo[d]imidazole-1,2-diyl))bis(3,4-difluorobenzoic acid)], the affinity, expressed as Kd, was 1000 µM. On to `COc1c(C(N)=O)ccc2c1nc(-c1c(F)cc(F)cc1-c1nn[nH]n1)n2CCn1c(-c2c(F)cc(F)cc2-c2nn[nH]n2)nc2c(OC)c(C(N)=O)ccc21` [Example 43, 1,1′-(Ethane-1,2-diyl)bis(2-(2,4-difluoro-6-(2H-tetrazol-5-yl)phenyl)-4-methoxy-1H-benzo[d]imidazole-5-carboxamide)], for which binding was put at a Kd of 1.79 µM. This Kd is about 560-fold lower than that of the molecule before. With `COc1c(C(N)=O)ccc2c1nc(-c1c(F)cc(Cl)cc1Br)n2CCn1c(-c2c(F)cc(Cl)cc2Br)nc2c(OC)c(C(N)=O)ccc21` [Example 45, 1,1′-(Ethane-1,2-diyl)bis(2-(2-bromo-4-chloro-6-fluorophenyl)-4-methoxy-1H-benzo[d]imidazole-5-carboxamide)] the figure was 29.6 µM. For `COc1c(C(N)=O)ccc2c1nc(-c1c(F)cccc1C(=O)O)n2CCn1c(-c2c(F)cccc2C(=O)O)nc2c(OC)c(C(N)=O)ccc21` [Example 10, 2,2′-(Ethane-1,2-diylbis(5-carbamoyl-4-methoxy-1H-benzo[d]imidazole-1,2-diyl))bis(3-fluorobenzoic acid)], binding was characterised by a dissociation constant (Kd) of 5.86 µM.

These data come from patent publication US12415785B2, “Compound modulators of sting” (CTXT PTY LTD, priority 2019, dated 2025).
